Measurements taken from ChEMBL document CHEMBL5150040, “Bis-aryl-α,β-unsaturated ketone (ABK) chaperonin inhibitors exhibit selective cytotoxicity to colorectal cancer cells that correlates with levels of aberrant HSP60 in the cytosol” (Bioorg Med Chem, 2022).
The source made the active and inactive calls. No cut-off for these calls is given here.

What was measured:
HCT-116 [1] = assay: Cytotoxicity against human HCT-116 cells assessed as reduction in cell viability incubated for 48 hrs by AlamarBlue-based assay; format: functional; conditions: HCT-116, 48 h
[2] = Cytotoxicity against human FHs74Int cells assessed as reduction in cell viability incubated for 48 hrs by AlamarBlue-based assay; format: toxicity
[3] = Inhibition of Escherichia coli GroEL expressed in NEB-5-alpha Escherichia coli cells/Escherichia coli GroES expressed in Escherichia coli BL21(DE3) cells assessed as inhibition of GroEL/ES-mediated dRho refolding by reporter analysis
[4] = Inhibition of human mitochondrial HSP60 expressed in Escherichia coli Rosetta 2 (DE3) cells/human mitochondrial HSP10 expressed in Escherichia coli Rosetta 2 (DE3) pLysS cells assessed as inhibition of […]-mediated dMDH refolding by reporter analysis; format: mitochondria, Mitochondria
[5] = Cytotoxicity against human FHC cells assessed as reduction in cell viability incubated for 48 hrs by AlamarBlue-based assay; format: toxicity
HT-29 = assay: Cytotoxicity against human HT-29 cells assessed as reduction in cell viability incubated for 48 hrs by AlamarBlue-based assay; format: functional; conditions: HT-29, 48 h
[6] = Inhibition of refolded rhodanese reporter enzyme (unknown origin); parameters: species or system Homo sapiens
[7] = Inhibition of Escherichia coli GroEL expressed in NEB-5-alpha Escherichia coli cells/Escherichia coli GroES expressed in Escherichia coli BL21(DE3) cells assessed as inhibition of GroEL/ES-mediated dMDH refolding by reporter analysis
HCT-116 [8] = assay: Cytotoxicity against p53-/- human HCT-116 cells assessed as reduction in cell viability incubated for 48 hrs by AlamarBlue-based assay; format: functional; conditions: HCT-116, 48 h
[9] = Inhibition of refolded MDH reporter enzyme (unknown origin); parameters: species or system Homo sapiens
DLD-1 = assay: Cytotoxicity against human DLD-1 cells assessed as reduction in cell viability incubated for 48 hrs by AlamarBlue-based assay; format: functional; conditions: DLD-1, 48 h
[10] = Selectivity index, ratio of CC50 for cytotoxicity against non-cancerous cells to EC50 for cytotoxicity against human HCT-116 cells; format: toxicity, cell-based; conditions: non-cancerous cells versus HCT-116 cells, read-out: Ratio CC50/EC50
HCT-116 [11] = assay: Cytotoxicity against human HCT-116 cells assessed as reduction in cell viability incubated for 48 hrs by AlamarBlue-based assay relative to control; format: functional
HCT-116 [12] = assay: Cytotoxicity against human HCT-116 cells assessed as reduction in cell viability at 0.01 to 100 uM by Trypan Blue staining based analysis; format: functional; conditions: dose 0.01-100 µM, time 24-48 hrs, TDE = time-dependent effect
HCT-116 [13] = assay: Inhibition of cell migration in human HCT-116 cells measured after 26 hrs by scratch wound healing assay; format: functional, cell-based; conditions: HCT-116, 26 h
HCT-116 [14] = assay: Induction of apoptosis in human HCT-116 cells at 0.1 to 100 uM incubated for 48 hrs by AnnexinV-FITC/PI staining based flow cytometry; format: functional, cell-based; conditions: dose 0.1-100 µM
HCT-116 [15] = assay: Inhibition of clonogenicity in human HCT-116 cells at > 1 uM incubated for 72 hrs followed by incubation in fresh medium for 7 days by crystal violet staining based analysis; format: functional, cell-based
HCT-116 [16] = assay: Induction of necrotic cell death in human HCT-116 cells at 0.1 to 100 uM incubated for 48 hrs by AnnexinV-FITC/PI staining based flow cytometry; format: functional; conditions: dose 0.1-100 µM
Escherichia coli = assay: Inhibition of Escherichia coli GroEL expressed in NEB-5-alpha Escherichia coli cells/Escherichia coli GroES expressed in Escherichia coli BL21(DE3) cells assessed as inhibition of GroEL/ES-mediated dMDH refolding measured after 24 hrs dialysis period by reporter analysis
HCT-116 [17] = assay: Cytotoxicity against human HCT-116 cells assessed as reduction in cell viability incubated for 72 hrs by AlamarBlue-based assay relative to control; format: functional

| SMILES | EC50 (HCT-116 [1]) [µM] | CC50 at 48 h [2] [µM] | IC50 [3] [µM] | IC50 [4] [µM] | CC50 at 48 h [5] [µM] | EC50 (HT-29) [µM] | IC50 [6] [µM] | IC50 [7] [µM] | EC50 (HCT-116 [8]) [µM] | IC50 [9] [µM] | EC50 (DLD-1) [µM] | selectivity ratio [10] | Activity (HCT-116 [11]) [%] | Activity (HCT-116 [12]) | EC50 (HCT-116 [13]) [µM] | Activity (HCT-116 [14]) | inhibition (HCT-116 [15]) | Activity (HCT-116 [16]) | inhibition (Escherichia coli) | Activity (HCT-116 [17]) [%] |
| --- | --- | --- | --- | --- | --- | --- | --- | --- | --- | --- | --- | --- | --- | --- | --- | --- | --- | --- | --- | --- |
| O=C(NCc1ccccc1)c1ccccc1 | > 100 | > 100 | > 250 | > 100 | > 100 | > 100 | > 100 | > 100 | > 100 | > 63 | > 100 | – | – | – | – | – | – | – | – | – |
| O=C(CCc1ccccc1)c1ccccc1 | > 100 | > 100 | > 250 | > 100 | > 100 | > 100 | > 100 | > 100 | > 100 | > 63 | > 100 | – | – | – | – | – | – | – | – | – |
| O=C(/C=C/c1ccc(O)cc1)c1ccccc1 [4-HYDROXYCHALCONE] | 32 | 97 | 39 | 21 | > 100 | 39 | > 100 | 20 | 32 | > 63 | 51 | 3.1 | – | – | – | – | – | – | – | – |
| Nc1ccc(C(=O)/C=C/c2ccco2)cc1 | 21 | 86 | 12 | 9.8 | 90 | 28 | 55 | 5.9 | 24 | 46 | 31 | 4.2 | – | – | – | – | – | – | – | – |
| O=C(/C=C/c1cccc([N+](=O)[O-])c1)c1ccc(NC(=O)c2ccccc2)cc1 | 4.1 | > 100 | 3.1 | 2.3 | > 100 | 3.9 | > 100 | 0.71 | 25 | > 63 | > 100 | 24 | – | – | – | – | – | – | – | – |
| CC(=O)Nc1ccc(C(=O)/C=C/c2cccc([N+](=O)[O-])c2)cc1 | 1.7 | 12 | 7 | 7.7 | 15 | 2 | > 100 | 2.1 | 1.8 | > 63 | 6.3 | 7.9 | – | – | – | – | – | – | – | – |
| OC(/C=C/c1ccccc1)c1ccccc1 (stereo unspecified) | > 100 | > 100 | > 250 | > 100 | > 100 | > 100 | > 100 | > 100 | > 100 | > 63 | > 100 | – | – | – | – | – | – | – | – | – |
| O=C(/C=C/c1cccc([N+](=O)[O-])c1)c1ccc(NC(=O)c2cccs2)cc1 | 2.6 | 24 | 1.5 | 2.2 | 73 | 2.5 | > 100 | 0.41 | 2.5 | > 63 | 11 | 19 | 100 | Tde | 13 | Active | Active | Active | – | – |
| O=C(/C=C/c1ccccc1)c1ccc(NC(=O)c2ccccc2)cc1 | 17 | 60 | 27 | 5.9 | 73 | 36 | > 100 | 4.3 | 28 | > 63 | 46 | 3.9 | – | – | – | – | – | – | – | – |
| Nc1ccc(C(=O)/C=C/c2ccccc2)cc1 | 27 | 97 | 135 | 43 | > 100 | 35 | > 100 | 57 | 23 | > 63 | 33 | 3.7 | – | – | – | – | – | – | – | – |
| CC(=O)Nc1ccc(C(=O)/C=C/c2ccco2)cc1 | 56 | 99 | 67 | 44 | > 100 | 88 | > 100 | 41 | 72 | > 63 | 84 | 1.8 | – | – | – | – | – | – | – | – |
| O=C(/C=C/c1ccc([N+](=O)[O-])cc1)c1ccc(O)c(O)c1 | 5.8 | 11 | 1.3 | 6.2 | 28 | 8.2 | 45 | 2 | 6.1 | > 63 | 9.6 | 3.4 | – | – | – | – | – | – | – | – |
| COc1ccc(C(=O)/C=C/c2ccccc2)cc1 [4'-METHOXYCHALCONE] | 16 | 37 | 34 | 16 | 62 | 23 | > 100 | 13 | 17 | > 63 | 35 | 3.2 | – | – | – | – | – | – | – | – |
| O=C(/C=C/c1ccccc1)c1ccc(O)cc1 [4'-HYDROXYCHALCONE] | 20 | 65 | 61 | 21 | 82 | 30 | > 100 | 20 | 21 | > 63 | 34 | 3.7 | – | – | – | – | – | – | – | – |
| O=C(/C=C/c1ccco1)c1ccc(NC(=O)c2cccs2)cc1 | 33 | 68 | 9.7 | 12 | 93 | 50 | > 100 | 6.7 | 45 | > 63 | 56 | 2.4 | – | – | – | – | – | – | – | – |
| CC(=O)Nc1ccc(C(=O)/C=C/c2ccccc2)cc1 | 11 | 58 | 40 | 14 | 86 | 13 | > 100 | 9.4 | 11 | > 63 | 28 | 6.7 | – | – | – | – | – | – | – | – |
| O=C(/C=C/c1ccco1)c1ccc(NC(=O)c2ccccc2)cc1 | 42 | > 100 | 37 | 20 | > 100 | 76 | > 100 | 21 | 59 | > 63 | 69 | 2.4 | – | – | – | – | – | – | – | – |
| COc1ccc(/C=C/C(=O)c2ccccc2)cc1 [4-METHOXY CHALCONE] | 22 | 91 | 46 | 22 | 99 | 32 | > 100 | 27 | 30 | > 63 | 52 | 4.4 | – | – | – | – | – | – | – | – |
| O=C(/C=C/c1ccccc1)c1ccc(NC(=O)c2cccs2)cc1 | 12 | 40 | 20 | 4.7 | 83 | 28 | > 100 | 3.8 | 16 | > 63 | 35 | 4.9 | – | – | – | – | – | – | – | – |
| O=C(/C=C/c1ccccc1)c1ccccc1 [CHALCONE] | 9.5 | 46 | 27 | 8.6 | 71 | 14 | > 100 | 7.1 | 11 | > 63 | 25 | 6.2 | – | – | – | – | – | – | – | – |
| O=C(/C=C/c1cccc([N+](=O)[O-])c1)c1ccc(NC(=O)c2ccco2)cc1 | 3.4 | 54 | 2.2 | 2.5 | > 100 | 3.5 | > 100 | 0.73 | 4.1 | > 63 | 22 | 23 | – | Tde | – | Active | Active | Active | Active | 100 |
